# Measured values as given in patent US20230398130A1, “METHODS AND COMPOSITIONS FOR DIFFERENTIATING STEM CELLS” (Massachusetts Institute of Technology, priority 2020, published 2023).
# Tests used:
# ISC-enriched organoids [1] = assay: Primary screen, 384-well 2.5-D organoid differentiation (ENR+CD, 6 days): basal lysozyme secretion (LYZ.NS); assay type: cell-based, murine; settings: for Dose.FC.LYZ.NS (log 2 fold change, basal lysozyme secretion) / Dose.FC.LYZ.NS (log 2 fold change): vs plate median; for Dose.FC.LYZ.NS: FC vs plate median; for Z.LYZ.NS: standard z score; for SSMD.LYZ.NS: strictly standardized mean difference
# Source text: (§1) High-throughput screening.
# ISC-enriched organoids [2] = assay: Primary screen, 384-well 2.5-D organoid differentiation (ENR+CD, 6 days): carbachol-induced lysozyme secretion (LYZ.S); assay type: cell-based, murine; settings: for Dose.FC.LYZ.S (log 2 fold change, carbachol-induced lysozyme secretion) / Dose.FC.LYZ.S (log 2 fold change): vs plate median; for Dose.FC.LYZ.S (log 2 fold change) / Dose.FC.LYZ.S / Z.LYZ.S / SSMD.LYZ.S: primary screen; for Dose.FC.LYZ.S: FC vs plate median; for Z.LYZ.S: standard z score; for SSMD.LYZ.S: strictly standardized mean difference
# Source text: as §1
# ISC-enriched organoids [3] = assay: Primary screen, 384-well 2.5-D organoid differentiation (ENR+CD, 6 days, Target Selective Inhibitor Library, vs whole-plate median): ATP (CellTiter-Glo 3D, CTG); settings: for Dose.FC.CTG (log 2 fold change, ATP) / Dose.FC.CTG (log 2 fold change): vs plate median; for Dose.FC.CTG: FC vs plate median; for Z.CTG: standard z score; for SSMD.CTG: strictly standardized mean difference
# [4] = primary screen, 1st of the 4 dose lines of the treatment (dose not given)
# [5] = primary screen, 2nd of the 4 dose lines of the treatment (dose not given)
# [6] = primary screen, 3rd of the 4 dose lines of the treatment (dose not given)
# [7] = primary screen, 4th of the 4 dose lines of the treatment (dose not given)
# [8] = 1st of the 4 dose lines of the treatment (dose not given)
# [9] = 2nd of the 4 dose lines of the treatment (dose not given)
# [10] = 3rd of the 4 dose lines of the treatment (dose not given)
# [11] = 4th of the 4 dose lines of the treatment (dose not given)
structure (smiles),measurement,setting,value
"Cc1cc(Nc2cc(N3CCN(C)CC3)nc(Sc3ccc(NC(=O)C4CC4)cc3)n2)n[nH]1 [VX-680 (Tozasertib, MK-0457)]",Z.LYZ.NS (standard z score),ISC-enriched organoids [1]; dose 0.08 uM,−0.371
same,"Dose.FC.LYZ.NS (log 2 fold change, basal lysozyme secretion)",ISC-enriched organoids [1]; dose 0.08 uM,−0.043
same,Z.LYZ.NS (standard z score),ISC-enriched organoids [1]; dose 0.40 uM,−1.317
same,"Dose.FC.LYZ.NS (log 2 fold change, basal lysozyme secretion)",ISC-enriched organoids [1]; dose 0.40 uM,−0.151
same,Z.LYZ.NS (standard z score),ISC-enriched organoids [1]; dose 2.00 uM,−1.450
same,"Dose.FC.LYZ.NS (log 2 fold change, basal lysozyme secretion)",ISC-enriched organoids [1]; dose 2.00 uM,−0.166
same,Z.LYZ.NS (standard z score),ISC-enriched organoids [1]; dose 10.00 uM,−2.069
same,"Dose.FC.LYZ.NS (log 2 fold change, basal lysozyme secretion)",ISC-enriched organoids [1]; dose 10.00 uM,−0.238
same,"Dose.FC.LYZ.S (log 2 fold change, carbachol-induced lysozyme secretion)",ISC-enriched organoids [2]; dose 0.08 uM,−0.078
same,"Dose.FC.LYZ.S (log 2 fold change, carbachol-induced lysozyme secretion)",ISC-enriched organoids [2]; dose 0.40 uM,−0.245
same,"Dose.FC.LYZ.S (log 2 fold change, carbachol-induced lysozyme secretion)",ISC-enriched organoids [2]; dose 2.00 uM,−0.308
same,"Dose.FC.LYZ.S (log 2 fold change, carbachol-induced lysozyme secretion)",ISC-enriched organoids [2]; dose 10.00 uM,−0.342
same,Z.CTG (standard z score),ISC-enriched organoids [3]; dose 0.08 uM,−0.359
same,"Dose.FC.CTG (log 2 fold change, ATP)",ISC-enriched organoids [3]; dose 0.08 uM,−0.150
same,Z.CTG (standard z score),ISC-enriched organoids [3]; dose 0.40 uM,−1.425
same,"Dose.FC.CTG (log 2 fold change, ATP)",ISC-enriched organoids [3]; dose 0.40 uM,−0.596
same,Z.CTG (standard z score),ISC-enriched organoids [3]; dose 2.00 uM,−1.686
same,"Dose.FC.CTG (log 2 fold change, ATP)",ISC-enriched organoids [3]; dose 2.00 uM,−0.706
same,Z.CTG (standard z score),ISC-enriched organoids [3]; dose 10.00 uM,−2.291
same,"Dose.FC.CTG (log 2 fold change, ATP)",ISC-enriched organoids [3]; dose 10.00 uM,−0.959
CC(C)(C)c1cnc(CSc2cnc(NC(=O)C3CCNCC3)s2)o1 [SNS-032 (BMS-387032)],Z.LYZ.NS (standard z score),"ISC-enriched organoids [1]; Dose 0.08 uM, primary screen",0.428
same,Dose.FC.LYZ.NS (log 2 fold change),"ISC-enriched organoids [1]; Dose 0.08 uM, primary screen",0.049
same,Z.LYZ.NS (standard z score),"ISC-enriched organoids [1]; Dose 0.40 uM, primary screen",−1.241
same,Dose.FC.LYZ.NS (log 2 fold change),"ISC-enriched organoids [1]; Dose 0.40 uM, primary screen",−0.143
same,Z.LYZ.NS (standard z score),"ISC-enriched organoids [1]; Dose 2.00 uM, primary screen",−2.399
same,Dose.FC.LYZ.NS (log 2 fold change),"ISC-enriched organoids [1]; Dose 2.00 uM, primary screen",−0.276
same,Z.LYZ.NS (standard z score),"ISC-enriched organoids [1]; Dose 10.00 uM, primary screen",−2.214
same,Dose.FC.LYZ.NS (log 2 fold change),"ISC-enriched organoids [1]; Dose 10.00 uM, primary screen",−0.254
same,Dose.FC.LYZ.S (log 2 fold change),ISC-enriched organoids [2]; Dose 0.08 uM,0.070
same,Dose.FC.LYZ.S (log 2 fold change),ISC-enriched organoids [2]; Dose 0.40 uM,−0.206
same,Dose.FC.LYZ.S (log 2 fold change),ISC-enriched organoids [2]; Dose 2.00 uM,−0.301
same,Dose.FC.LYZ.S (log 2 fold change),ISC-enriched organoids [2]; Dose 10.00 uM,−0.361
same,Z.CTG (standard z score),"ISC-enriched organoids [3]; Dose 0.08 uM, primary screen",−0.180
same,Dose.FC.CTG (log 2 fold change),"ISC-enriched organoids [3]; Dose 0.08 uM, primary screen",−0.075
same,Z.CTG (standard z score),"ISC-enriched organoids [3]; Dose 0.40 uM, primary screen",−0.198
same,Dose.FC.CTG (log 2 fold change),"ISC-enriched organoids [3]; Dose 0.40 uM, primary screen",−0.083
same,Z.CTG (standard z score),"ISC-enriched organoids [3]; Dose 2.00 uM, primary screen",−2.186
same,Dose.FC.CTG (log 2 fold change),"ISC-enriched organoids [3]; Dose 2.00 uM, primary screen",−0.915
same,Z.CTG (standard z score),"ISC-enriched organoids [3]; Dose 10.00 uM, primary screen",−2.411
same,Dose.FC.CTG (log 2 fold change),"ISC-enriched organoids [3]; Dose 10.00 uM, primary screen",−1.009
O=C1[C@H](Cc2ccc(O)cc2)N2C(=O)CCN(C(=O)NCc3ccccc3)[C@H]2CN1Cc1cccc2ccccc12 [ICG-001],Dose.FC.LYZ.NS,"ISC-enriched organoids [1]; Dose 0.08 uM, primary screen",0.037 log 2 fold change
same,Z.LYZ.NS,"ISC-enriched organoids [1]; Dose 0.08 uM, primary screen",0.324
same,Dose.FC.LYZ.NS,"ISC-enriched organoids [1]; Dose 0.40 uM, primary screen",0.037 log 2 fold change
same,Z.LYZ.NS,"ISC-enriched organoids [1]; Dose 0.40 uM, primary screen",0.321
same,Dose.FC.LYZ.NS,"ISC-enriched organoids [1]; Dose 2.00 uM, primary screen",0.045 log 2 fold change
same,Z.LYZ.NS,"ISC-enriched organoids [1]; Dose 2.00 uM, primary screen",0.396
same,Dose.FC.LYZ.NS,"ISC-enriched organoids [1]; Dose 10.00 uM, primary screen",−0.125 log 2 fold change
same,Z.LYZ.NS,"ISC-enriched organoids [1]; Dose 10.00 uM, primary screen",−1.093
same,SSMD.LYZ.NS,ISC-enriched organoids [1]; [4],0.280
same,SSMD.LYZ.NS,ISC-enriched organoids [1]; [5],0.339
same,SSMD.LYZ.NS,ISC-enriched organoids [1]; [6],0.413
same,SSMD.LYZ.NS,ISC-enriched organoids [1]; [7],−1.162
same,Dose.FC.LYZ.S,ISC-enriched organoids [2]; Dose 0.08 uM,0.163 log 2 fold change
same,Dose.FC.LYZ.S,ISC-enriched organoids [2]; Dose 0.40 uM,0.204 log 2 fold change
same,Dose.FC.LYZ.S,ISC-enriched organoids [2]; Dose 2.00 uM,0.017 log 2 fold change
same,Dose.FC.LYZ.S,ISC-enriched organoids [2]; Dose 10.00 uM,−0.124 log 2 fold change
same,Z.LYZ.S,ISC-enriched organoids [2]; [8],1.054
same,Z.LYZ.S,ISC-enriched organoids [2]; [9],1.318
same,Z.LYZ.S,ISC-enriched organoids [2]; [10],0.109
same,Z.LYZ.S,ISC-enriched organoids [2]; [11],−0.802
same,SSMD.LYZ.S,ISC-enriched organoids [2]; [8],0.711
same,SSMD.LYZ.S,ISC-enriched organoids [2]; [9],0.796
same,SSMD.LYZ.S,ISC-enriched organoids [2]; [10],0.122
same,SSMD.LYZ.S,ISC-enriched organoids [2]; [11],−0.824
same,Dose.FC.CTG,"ISC-enriched organoids [3]; Dose 0.08 uM, primary screen",0.104 log 2 fold change
same,Z.CTG,"ISC-enriched organoids [3]; Dose 0.08 uM, primary screen",0.249
same,Dose.FC.CTG,"ISC-enriched organoids [3]; Dose 0.40 uM, primary screen",0.104 log 2 fold change
same,Z.CTG,"ISC-enriched organoids [3]; Dose 0.40 uM, primary screen",0.248
same,Dose.FC.CTG,"ISC-enriched organoids [3]; Dose 2.00 uM, primary screen",0.143 log 2 fold change
same,Z.CTG,"ISC-enriched organoids [3]; Dose 2.00 uM, primary screen",0.343
same,Dose.FC.CTG,"ISC-enriched organoids [3]; Dose 10.00 uM, primary screen",−0.416 log 2 fold change
same,Z.CTG,"ISC-enriched organoids [3]; Dose 10.00 uM, primary screen",−0.993
same,SSMD.CTG,ISC-enriched organoids [3]; [4],0.298
same,SSMD.CTG,ISC-enriched organoids [3]; [5],0.360
same,SSMD.CTG,ISC-enriched organoids [3]; [6],0.530
same,SSMD.CTG,ISC-enriched organoids [3]; [7],−0.731
Cc1ccc(NC(=O)C2(c3ccc4c(c3)OC(F)(F)O4)CC2)nc1-c1cccc(C(=O)O)c1 [VX-809 (Lumacaftor)],Z.LYZ.NS (standard z score),ISC-enriched organoids [1]; dose 0.08 uM,0.634
same,"Dose.FC.LYZ.NS (log 2 fold change, basal lysozyme secretion)",ISC-enriched organoids [1]; dose 0.08 uM,0.073
same,Z.LYZ.NS (standard z score),ISC-enriched organoids [1]; dose 0.40 uM,−0.353
same,"Dose.FC.LYZ.NS (log 2 fold change, basal lysozyme secretion)",ISC-enriched organoids [1]; dose 0.40 uM,−0.041
same,Z.LYZ.NS (standard z score),ISC-enriched organoids [1]; dose 2.00 uM,−0.279
same,"Dose.FC.LYZ.NS (log 2 fold change, basal lysozyme secretion)",ISC-enriched organoids [1]; dose 2.00 uM,−0.032
same,Z.LYZ.NS (standard z score),ISC-enriched organoids [1]; dose 10.00 uM,−0.713
same,"Dose.FC.LYZ.NS (log 2 fold change, basal lysozyme secretion)",ISC-enriched organoids [1]; dose 10.00 uM,−0.082
same,"Dose.FC.LYZ.S (log 2 fold change, carbachol-induced lysozyme secretion)",ISC-enriched organoids [2]; dose 0.08 uM,0.218
same,"Dose.FC.LYZ.S (log 2 fold change, carbachol-induced lysozyme secretion)",ISC-enriched organoids [2]; dose 0.40 uM,−0.027
same,"Dose.FC.LYZ.S (log 2 fold change, carbachol-induced lysozyme secretion)",ISC-enriched organoids [2]; dose 2.00 uM,−0.073
same,"Dose.FC.LYZ.S (log 2 fold change, carbachol-induced lysozyme secretion)",ISC-enriched organoids [2]; dose 10.00 uM,−0.117
same,Z.CTG (standard z score),ISC-enriched organoids [3]; dose 0.08 uM,0.423
same,"Dose.FC.CTG (log 2 fold change, ATP)",ISC-enriched organoids [3]; dose 0.08 uM,0.177
same,Z.CTG (standard z score),ISC-enriched organoids [3]; dose 0.40 uM,−0.149
same,"Dose.FC.CTG (log 2 fold change, ATP)",ISC-enriched organoids [3]; dose 0.40 uM,−0.062
same,Z.CTG (standard z score),ISC-enriched organoids [3]; dose 2.00 uM,−0.346
same,"Dose.FC.CTG (log 2 fold change, ATP)",ISC-enriched organoids [3]; dose 2.00 uM,−0.145
same,Z.CTG (standard z score),ISC-enriched organoids [3]; dose 10.00 uM,0.076
same,"Dose.FC.CTG (log 2 fold change, ATP)",ISC-enriched organoids [3]; dose 10.00 uM,0.032
